Laboratory results taken from PubChem BioAssay AID2151 (NMMLSC, 2009).
The source made the active and inactive calls. The rule behind the calls is not given here.

What follows are compounds tested against MEK5 PB1 domain binding to MEKK2 (MAP3K2) mutant PB1, human (assay: mutant MEKK2-MEK5 PB1 binding inhibitors, SAR follow-up, biochemical, bead multiplex flow cytometry (AID 2151)). Conditions: Bead-based multiplex flow cytometry.

EC50, inactive:
COc1cc([N+](=O)[O-])ccc1-c1nn2c(-c3ccco3)nnc2s1 > 30 µM, c1csc(Cc2nn3c(-c4ccncc4)nnc3s2)c1 > 30 µM, COc1cc([N+](=O)[O-])ccc1-c1nn2c(-c3ccccn3)nnc2s1 > 30 µM, c1ccc(-c2nnc3sc(C4CCCCC4)nn23)nc1 > 30 µM, COc1ccc(-c2nn3c(-c4ccccn4)nnc3s2)cc1OC > 30 µM, CCOc1cccc(-c2nn3c(-c4ccco4)nnc3s2)c1 > 30 µM, COc1cccc(-c2nn3c(-c4ccccn4)nnc3s2)c1 > 30 µM, c1coc(-c2nnc3sc(C4CCCCC4)nn23)c1 > 30 µM, c1coc(-c2nnc3sc(C4CCCCCC4)nn23)c1 > 30 µM, c1ccc(-c2nnc3sc(-c4ccc[nH]4)nn23)nc1 > 30 µM, CCOc1cccc(-c2nn3c(-c4cccs4)nnc3s2)c1 > 30 µM, c1ccc(-c2nnc3sc(C4CCCCCC4)nn23)nc1 > 30 µM, c1c[nH]c(-c2nn3c(-c4ccco4)nnc3s2)c1 > 30 µM
